Results published in publication PMC3229523, “Identification of Lactoferricin B Intracellular Targets Using an Escherichia coli Proteome Chip” (PLoS ONE, 2011).
Ends that are not written are not given here. * marks the point of attachment. Biotin = O=C1N[C@H]2[C@H](CS[C@H]2CCCCC(=O)*)N1

Experiments:
NrdB = experiment: E. coli proteome chip assay, NrdB; type: binding, E. coli K-12; conditions: NrdB not in the top 153 proteins; 10 nM biotinylated LfcinB
Procedure: To fabricate the proteome chips, E. coli K-12 proteins were expressed and purified in a high-throughput fashion. The procedure was modified from Chen et al.. Briefly, E. coli protein expression clones fused with a 6×-His tag, provided by Dr. Mori, were first incubated with glass beads (Biospec Products Inc.) in 2× LB medium containing 30 µg/ml chloramphenicol in 96 DeepWell™ plates (Nunc) at 37°C overnight. The overnight cultures were then diluted with 2× LB that contains 30 µg/ml chloramphenicol to the OD595 value of 0.1. When the cells grew to an OD595 value of 0.7–0.9, 500 µM of isopropyl β-D-thiogalactoside (IPTG) was added to induce protein expression at 37°C for ∼3.5 h. The cultures were then harvested by centrifugation at 3220 g for 5 min at 4°C, and the pellets were stored at −80°C before purification. […]
For image processing of chip assay results, Genepix Pro 6.0 was used to align the protein spot of each individual protein and then all aligned protein image signals were exported as a text file. The text file was analyzed by ProCAT [17], a signal normalization method. The relative ability of LfcinB to bind to each protein was estimated by the ratio of the fluorescence intensity of LfcinB to the fluorescence intensity of an anti-His antibody after the normalization. […]

YnhE = experiment: Fluorescence polarization assay, YnhE; type: binding, E. coli; conditions: 100 nM DyLight 549-labeled LfcinB; protein 0.025-0.4 µM; data not shown
Source text: (§1) FP assays, investigations of the binding between two molecules in a homogeneous aqueous environment, were used to validate the identified 153 proteins. […] If a fluorophore only binds to a small molecule, such as peptide, the rotation of the complex is fast and the light emits in a different plane of polarization. Therefore, the degree of polarization is low. However, once a fluorophore binds to a large molecule, the bound complex is stimulated with polarized light. The light emits in the same polarized plane, and the complex is maintained in the same plane of polarization, causing an increase in the degree of polarization [22]–[24]. The amount of molecules binding to a fluorophore influences the degree of polarization. In this study, LfcinB was labeled with DyLight™ 549 as a reference value. Once the protein bound to LfcinB, like a fluorophore binds to a large molecule, a high degree of polarization is expected.
(§2) Before the assays, LfcinB was labeled with DyLight™ 549 and tested proteins were quantified with a Pierce® bicinchoninic acid (BCA™) protein assay (Thermo). To label the LfcinB, DyLight™ 549-NHS ester and LfcinB (68∶1, mole/mole) were mixed in PBS at room temperature for 1 h, a D-Salt™ polyacrylamide desalting column (Thermo) was used to remove excess dye and the labeling efficiency of the eluted solution was calculated. […]

MalP = experiment: Fluorescence polarization assay, MalP; type: binding, E. coli; conditions: 100 nM DyLight 549-labeled LfcinB; protein 0.025-0.4 µM; data not shown
Source text: as §1, §2

YhaN = experiment: Fluorescence polarization assay, YhaN; type: binding, E. coli; conditions: 100 nM DyLight 549-labeled LfcinB; protein 0.025-0.4 µM; data not shown
Source text: as §1, §2

CyaA = system: CyaA
Source text: as §1, §2

What does the source list for “Lactoferricin B (Biotin-FKCRRWQWRMKKLGAPSITCVRRAF; ends and bridges not checked) [LfcinB]”?
binding affinity in chip assays (NrdB): strong binding affinity with LfcinB; binding to YnhE (YnhE): confirmed to bind to LfcinB; binding to MalP (MalP): confirmed to bind to LfcinB; binding to YhaN (YhaN): confirmed to bind to LfcinB; degree of polarization vs BSA (CyaA; 100 nM DyLight 549-labeled LfcinB, protein 0.025-0.4 µM, PBS, 0.005% BSA, 0.01% Triton X-100, room temperature, 1 h, Figure 5D): higher polarization than the negative control; concentration dependence of polarization (CyaA; CyaA, two-fold dilution 0.4 µM to 0.025 µM, 100 nM labeled LfcinB): increased with increasing concentrations of these 4 proteins
